Test results published in ChEMBL document CHEMBL5338744, “Development and Characterization of Benzoselenazole Derivatives as Potent and Selective c-MYC Transcription Inhibitors” (J Med Chem, 2023).

Key:
HepG2 = assay: Cytotoxicity against human HepG2 cells assessed as reduction in cell viability incubated for 48 hrs by MTT assay; assay type: functional, cell-based; conditions: HepG2, 48 h
HCT-116 = assay: Cytotoxicity against human HCT-116 cells assessed as reduction in cell viability incubated for 48 hrs by MTT assay; assay type: functional, cell-based; conditions: HCT-116, 48 h
[1] = Cytotoxicity against human NCM460 cells assessed as reduction in cell viability incubated for 48 hrs by MTT assay; assay type: toxicity, cell-based

**Q.** For CCn1c2ccccc2c2cc(/C=C/c3sc4ccc5ccccc5c4[n+]3C)ccc21, which IC50 (HepG2) is on record?
**A.** 8.3 µM

**Q.** And the IC50 (HCT-116)?
**A.** 2.5 µM

**Q.** And the IC50 at 48 h [1]?
**A.** 26.1 µM

**Q.** What does the source list for CCn1c2ccccc2c2cc(/C=C/c3oc4ccccc4[n+]3C)ccc21?
**A.** IC50 (HepG2): 43.3 µM; IC50 (HCT-116): 46.7 µM; IC50 at 48 h [1]: > 100 µM

**Q.** What does the source list for C[n+]1c(/C=C/c2ccc3c(c2)c2ccccc2n3Cc2ccccc2)sc2ccccc21?
**A.** IC50 (HepG2): 7.4 µM; IC50 (HCT-116): 4.1 µM; IC50 at 48 h [1]: 45.6 µM

**Q.** Which IC50 (HepG2) does the source give for CCn1c2ccccc2c2cc(/C=C/c3[se]c4ccc5ccccc5c4[n+]3C)ccc21 here?
**A.** 4.5 µM

**Q.** And the IC50 (HCT-116)?
**A.** 9 µM

**Q.** And the IC50 at 48 h [1]?
**A.** 42.5 µM

**Q.** With CCn1c2ccccc2c2cc(/C=C/c3sc4ccccc4[n+]3C)ccc21 as the compound, how does the IC50 (HepG2) read?
**A.** 5.7 µM

**Q.** And the IC50 (HCT-116)?
**A.** 4 µM

**Q.** What about the IC50 at 48 h [1] of the same compound?
**A.** 39.3 µM

**Q.** Which results are given for C[n+]1c(/C=C/c2ccc3c(c2)c2ccccc2n3Cc2ccccc2)oc2ccccc21?
**A.** IC50 (HepG2): 96.2 µM; IC50 (HCT-116): 32.3 µM; IC50 at 48 h [1]: > 100 µM

**Q.** For CCn1c2ccccc2c2cc(/C=C/c3nc4ccccc4o3)ccc21, which IC50 (HepG2) is on record?
**A.** 37.7 µM

**Q.** What about the IC50 (HCT-116) of the same compound?
**A.** 32.1 µM

**Q.** What about the IC50 at 48 h [1] of the same compound?
**A.** > 100 µM

**Q.** For CN(C)CCCn1c2ccccc2c2cc(/C=C/c3sc4ccccc4[n+]3C)ccc21, which IC50 (HepG2) is on record?
**A.** 11.3 µM

**Q.** What about the IC50 (HCT-116) of the same compound?
**A.** 14.7 µM

**Q.** What about the IC50 at 48 h [1] of the same compound?
**A.** 30.2 µM

**Q.** With CCn1c2ccccc2c2cc(/C=C/c3nc4c(ccc5ccccc54)s3)ccc21 as the compound, how does the IC50 (HepG2) read?
**A.** 58.7 µM

**Q.** And the IC50 (HCT-116)?
**A.** > 100 µM

**Q.** What about the IC50 at 48 h [1] of the same compound?
**A.** > 100 µM

**Q.** With CCn1c2ccccc2c2cc(/C=C/c3nc4c(ccc5ccccc54)o3)ccc21 as the compound, how does the IC50 (HepG2) read?
**A.** > 100 µM

**Q.** What about the IC50 (HCT-116) of the same compound?
**A.** > 100 µM

**Q.** And the IC50 at 48 h [1]?
**A.** > 100 µM

**Q.** With C(=C\c1nc2ccccc2[se]1)/c1ccc2c(c1)c1ccccc1n2Cc1ccccc1 as the compound, how does the IC50 (HepG2) read?
**A.** > 100 µM

**Q.** And the IC50 (HCT-116)?
**A.** > 100 µM

**Q.** And the IC50 at 48 h [1]?
**A.** > 100 µM

**Q.** Which results are given for CCn1c2ccccc2c2cc(/C=C/c3nc4c(ccc5ccccc54)[se]3)ccc21?
**A.** IC50 (HepG2): > 100 µM; IC50 (HCT-116): > 100 µM; IC50 at 48 h [1]: > 100 µM
